Results reported in patent US9993459B2, “Selective HDAC6 inhibitors and uses thereof” (Universiteit Gent, priority 2015, dated 2018).

Tests used:
NF-κβ = assay: NF-κβ-dependent luciferase reporter p(IL6kB)350hu.IL6P-luc in TNF-activated A549 cells; format: cell-based; settings: TNF-activated A549, 1 μM or 10 μM
Protocol: (§1) FIG. 2: A549 cells with the stably integrated recombinant reporter gene p(GRE)2-50-luc (A) were pre-incubated with respective solvents, the selective Glucocorticoid Receptor modulator CpdA (10 μM), 7a, (1 μM or 10 μM), 7b (1 μM or 10 μM), 13a (1 μM or 10 μM) for 1 h after which the synthetic glucocorticoid dexamethasone (DEX,1 μM) was added, where indicated, for 5 h. A549 cells with the stably integrated recombinant reporter gene p(IL6kB)350hu.IL6P-luc (B) or Collagenase-luc (C) were pre-incubated with respective solvents, DEX (1 μM), CpdA (10 μM), 7a, (1 μM or 10 μM), 7b (1 μM or 10 μM), 13a (1 μM or 10 μM) for 1 h after which TNF (2000 units/ml) or PMA (20 nM) were added, where indicated, for 5 h. Cell lysates were assayed for luciferase activities. Promoter activities are expressed as relative induction factor calculated as percentage of maximal DEX (A), TNF (B) or PMA (C) responses. […] Assays were performed in triplicate, and results are averages of at least three independent experiments and shown ±S.D. ****p<0.0001; ***p<0.001; **p<0.01; *p<0.05. Statistical significance was determined on the averaged results, and analysis performed using one-way ANOVA tests followed by a Tukey multiple comparison post test. […]

AP-1 = assay: AP1-dependent luciferase reporter pCollagenase-luc in PMA-treated A549 cells; format: cell-based; settings: A549, 10 μM
Protocol: as §1

SMILES	block of the activity of NF-κβ (NF-κβ)	melting point	AP1-dependent promoter activity as compared to solvent control (DMSO) (AP-1)
O=C(NO)c1ccc(NCc2csc3ccccc23)cc1 [Compound 7a, 3-[(4-hydroxycarbamoylphenyl)aminomethyl]benzothiophene]	not able to block the activity of NF-κβ	191 °C	–
O=C(NO)c1ccc(NCc2csc3ccc(Br)cc23)cc1 [Compound 7b, 5-bromo-3-[(4-hydroxycarbamoylphenyl)aminomethyl]-benzothiophene]	not able to block the activity of NF-κβ	–	clearly induced the AP1-dependent promoter activity
O=C(NO)c1ccc(NCc2csc3cc(Br)ccc23)cc1 [Compound 13a, 6-bromo-3-[(4-hydroxycarbamoylphenyl)aminomethyl]-benzothiophene]	–	179.5 °C	–
